# Source: patent US10065957B2, “Beta-lactamase inhibitors” (Novartis AG, priority 2016, dated 2018)
# Key:
# Format in all cases: cell-based
# [1] = system: E. coli (OXA-18); assay: microbe, parasite or virus in culture; conditions: for MIC of aztreonam with beta-lactamase inhibitor: AZ + BLI at 2 μg/mL; for Activity of Beta-Lactam 5 with beta-lactamase inhibitor: Beta-Lactam 5 + BLI at 2 μg/mL; for MIC of ceftazidime with beta-lactamase inhibitor: Ceft + BLI at 2 μg/mL; for MIC of meropenem with beta-lactamase inhibitor: Mero + BLI at 2 μg/mL; for MIC of piperacillin with beta-lactamase inhibitor: Pip + BLI at 2 μg/mL
# Protocol: (§1) MICs were determined by the broth microdilution method in accordance with Clinical and Laboratories Institute (CLSI) guidelines. In brief, fresh overnight bacterial cultures were suspended in sterile saline, and adjusted to a 0.5 McFarland turbidity standard. Bacterial suspensions were then diluted in cation adjusted Mueller-Hinton Broth (MHB II; BBL) to yield a final inoculum of approximately 5×10^5 colony-forming units (CFU)/mL. A master plate of antibiotics was prepared at a concentration equivalent to hundred-fold the highest desired final concentration in 100% dimethyl sulfoxide (DMSO). The master antibiotic plate was then diluted by serial twofold dilution with a multichannel pipette. The resulting dilution series of compounds were diluted 1:10 with sterile water or a solution of beta-lactamase inhibitor prepared at a concentration equivalent to eleven-fold the desired final concentration in deionized water leading to a 10% DMSO final concentration. A volume of 10 μL of the drug dilution series was transferred to 96-well assay plates. Assay plates were inoculated with 90 μL of bacterial suspensions and incubated at 35° C. for 20 hrs. The assay plates were read using a microtiter plate reader (Molecular Devices) at 600 nm as well as by visual observation with a reading mirror. The lowest concentration of the compound that prevented visible growth was recorded as the MIC.
# (§2) Synergy or potentiation of beta-lactam antibiotics through inhibition of Q-lactamases was assessed against an isogenic panel of E. coli strains, each expressing a unique beta-lactamase, and against clinical strains.
# Construction of E. coli isogenic strains, NB27273-CDY0105 (OXA-18) and NB27273-CDY0048 (TEM-10). […] The gene encoding OXA-18 was then digested with XhoI and EcoRI and inserted into this vector, from which the gene for GIM-1 had been removed with XhoI and EcoRI.
# These final vectors for expression of OXA-18 and TEM-10 were transformed into BW25113 pspB to generate strains NB27273-CDY0105 (expressing OXA-18) and NB27273-CDY0048 (expressing TEM-10).
# [2] = system: E. coli (SHV-12); assay: microbe, parasite or virus in culture; conditions: for MIC of aztreonam with beta-lactamase inhibitor: AZ + BLI at 2 μg/mL; for Activity of Beta-Lactam 5 with beta-lactamase inhibitor: Beta-Lactam 5 + BLI at 2 μg/mL; for MIC of ceftazidime with beta-lactamase inhibitor: Ceft + BLI at 2 μg/mL; for MIC of meropenem with beta-lactamase inhibitor: Mero + BLI at 2 μg/mL
# Protocol: as §1, §2
# (§3) Strain NB27273 (BW25113 pspB::Km^r) was obtained from the Keio transposon insertion collection. The strain has the pspB gene replaced by a kanamycin resistance marker (BW25113 pspB::Km^r). This strain was cured of the transposon in pspB via FLP recombinase using published methodology. The resulting strain, BW25113 pspB, was used as a host for multicopy vectors expressing key beta-lactamases. Multicopy plasmids directing constitutive expression of beta-lactamases were established as follows: Synthetic, codon optimized genes encoding E. coli KPC-2, SHV-12 and CTX-M-15 beta-lactamases were made by DNA2.0 (Palo Alto, Calif.). Each of the synthetic fragments were designed to contain NotI and NcoI restriction sites at their termini, allowing ligation into a NotI/NcoI digested pET28a(+) derivative for protein expression. […] The codon optimized nucleotide sequences and relevant primer recognition information is shown below:
# (§4) The PCR products were then digested with XhoI and EcoRI and ligated into similarly digested plasmid pAH63-pstS(BlaP). […] Therefore, expression of beta-lactamases from pAH63-pstS(BlaP) based constructs is constitutive and the signal sequence is provided to direct these proteins to the periplasm. […] These fragments were then digested with XbaI and EcoRI, and each was inserted into pBAD18-kan that had been digested with the same enzymes to generate multicopy vectors expressing KPC-2, SHV-12 and CTX-M-15, respectively. These vectors were transformed into BW25113 pspB to generate strains NB27273-CDY0033 (expressing KPC-2), NB27273-CDY0030 (expressing SHV-12), NB27273-CDY0034 (expressing CTX-M-15) and NB27273-CDY0036 (expressing AmpC). The pBAD18-kan vector also contains the TEM promoter region and signal sequence, (but lacks any intact beta-lactamase genes) and was transformed into BW25113 pspB using standard protocols to generate the control strain NB27273-CDY0026.
# [3] = system: E. coli (CTX-M-15); assay: microbe, parasite or virus in culture; conditions: for MIC of aztreonam with beta-lactamase inhibitor: AZ + BLI at 2 μg/mL; for Activity of Beta-Lactam 5 with beta-lactamase inhibitor: Beta-Lactam 5 + BLI at 2 μg/mL; for MIC of ceftazidime with beta-lactamase inhibitor: Ceft + BLI at 2 μg/mL; for MIC of meropenem with beta-lactamase inhibitor: Mero + BLI at 2 μg/mL
# Protocol: as §1, §2, §3, §4
# [4] = system: E. coli (KPC-2); assay: microbe, parasite or virus in culture; conditions: E. coli (KPC-2); for MIC of aztreonam with beta-lactamase inhibitor: AZ + BLI at 2 μg/mL; for Activity of Beta-Lactam 5 with beta-lactamase inhibitor: Beta-Lactam 5 + BLI at 2 μg/mL; for MIC of ceftazidime with beta-lactamase inhibitor: Ceft + BLI at 2 μg/mL; for MIC of meropenem with beta-lactamase inhibitor: Mero + BLI at 2 μg/mL
# Protocol: as §1, §2, §3, §4
# [5] = system: K. pneumoniae NB29082 (KPC-2); assay: Potentiation of piperacillin in beta-lactam resistant clinical isolate; conditions: Pip + BLI at 2 μg/mL
# Protocol: as §1, with “MIC. Performance of the assay was monitored by testing aztreonam against laboratory quality control strains in accordance with guidelines of the CLSI.” for “MIC.”
# as §2
# [6] = system: Enterobacter cloacae NB25055 (CMY-2); assay: as above; conditions: Pip + BLI at 2 μg/mL
# Protocol: as §1, with “MIC. Performance of the assay was monitored by testing aztreonam against laboratory quality control strains in accordance with guidelines of the CLSI.” for “MIC.”
# as §2
# [7] = system: S. aureus NB01437 (BLA+); assay: as above; conditions: Pip + BLI at 2 μg/mL
# Protocol: as §1, with “MIC. Performance of the assay was monitored by testing aztreonam against laboratory quality control strains in accordance with guidelines of the CLSI.” for “MIC.”
# as §2
# [8] = system: E. coli ATCC 25922, K. pneumoniae ATCC 43816, P. aeruginosa ATCC 27853; assay: Direct antibacterial activity of BLIs alone, summary of Table A; conditions: BLI alone, in words
# Protocol: as §1, with “A volume of 10 μL of the drug dilution series was transferred to 96-well assay plates. Assay plates were inoculated with 90 μL of bacterial suspensions and incubated at 35° C. for 20 hrs.” left out, “MIC. Performance of the assay was monitored by testing aztreonam against laboratory quality control strains in accordance with guidelines of the CLSI.” for “MIC.”
smiles,measurement,setting,value
O=C(NC1CCNCC1)[C@@H]1CC[C@@H]2CN1C(=O)N2OS(=O)(=O)O [Relebactam],MIC of aztreonam with beta-lactamase inhibitor,[1],>64 µg/mL
same,Activity of Beta-Lactam 5 with beta-lactamase inhibitor,[1],0.25 µg/mL
same,MIC of ceftazidime with beta-lactamase inhibitor,[1],>64 µg/mL
same,MIC of meropenem with beta-lactamase inhibitor,[1],≤0.06 µg/mL
same,MIC of piperacillin with beta-lactamase inhibitor,[1],>32 µg/mL
same,MIC of aztreonam with beta-lactamase inhibitor,[2],32 µg/mL
same,Activity of Beta-Lactam 5 with beta-lactamase inhibitor,[2],0.125 µg/mL
same,MIC of ceftazidime with beta-lactamase inhibitor,[2],8 µg/mL
same,MIC of meropenem with beta-lactamase inhibitor,[2],≤0.06 µg/mL
same,MIC of aztreonam with beta-lactamase inhibitor,[3],0.5 µg/mL
same,Activity of Beta-Lactam 5 with beta-lactamase inhibitor,[3],0.25 µg/mL
same,MIC of ceftazidime with beta-lactamase inhibitor,[3],0.5 µg/mL
same,MIC of meropenem with beta-lactamase inhibitor,[3],≤0.06 µg/mL
same,MIC of aztreonam with beta-lactamase inhibitor,[4],1 µg/mL
same,Activity of Beta-Lactam 5 with beta-lactamase inhibitor,[4],0.125 µg/mL
same,MIC of ceftazidime with beta-lactamase inhibitor,[4],0.25 µg/mL
same,MIC of meropenem with beta-lactamase inhibitor,[4],≤0.06 µg/mL
"O=C1NC[C@@H]2C[C@@H]3CN(C(=O)N3OS(=O)(=O)[O-])[C@H]12.[Na+] [Example 1, Sodium (4R,5aS,8aS)-2,8-dioxohexahydro-2H-1,4-methanopyrrolo[3,4-d][1,3]diazepin-3(4H)-yl sulfate]",MIC of aztreonam with beta-lactamase inhibitor,[1],1 µg/mL
same,Activity of Beta-Lactam 5 with beta-lactamase inhibitor,[1],0.25 µg/mL
same,MIC of ceftazidime with beta-lactamase inhibitor,[1],0.5 µg/mL
same,MIC of meropenem with beta-lactamase inhibitor,[1],≤0.06 µg/mL
same,MIC of piperacillin with beta-lactamase inhibitor,[1],2 µg/mL
same,Activity of piperacillin with beta-lactamase inhibitor,[5],8 µg/mL
same,Activity of piperacillin with beta-lactamase inhibitor,[6],4 µg/mL
same,Activity of piperacillin with beta-lactamase inhibitor,[7],1 µg/mL
same,direct antibacterial activity,[8],does not exhibit much direct antibiotic activity
same,MIC of aztreonam with beta-lactamase inhibitor,[2],0.25 µg/mL
same,Activity of Beta-Lactam 5 with beta-lactamase inhibitor,[2],0.25 µg/mL
same,MIC of ceftazidime with beta-lactamase inhibitor,[2],0.25 µg/mL
same,MIC of meropenem with beta-lactamase inhibitor,[2],≤0.06 µg/mL
same,MIC of aztreonam with beta-lactamase inhibitor,[3],≤0.06 µg/mL
same,Activity of Beta-Lactam 5 with beta-lactamase inhibitor,[3],0.25 µg/mL
same,MIC of ceftazidime with beta-lactamase inhibitor,[3],0.25 µg/mL
same,MIC of meropenem with beta-lactamase inhibitor,[3],≤0.06 µg/mL
same,MIC of aztreonam with beta-lactamase inhibitor,[4],0.125 µg/mL
same,Activity of Beta-Lactam 5 with beta-lactamase inhibitor,[4],0.25 µg/mL
same,MIC of ceftazidime with beta-lactamase inhibitor,[4],0.125 µg/mL
same,MIC of meropenem with beta-lactamase inhibitor,[4],≤0.06 µg/mL
NC(=O)[C@@H]1CC[C@@H]2CN1C(=O)N2OS(=O)(=O)O [Avibactam],MIC of aztreonam with beta-lactamase inhibitor,[1],1 µg/mL
same,Activity of Beta-Lactam 5 with beta-lactamase inhibitor,[1],0.125 µg/mL
same,MIC of ceftazidime with beta-lactamase inhibitor,[1],0.5 µg/mL
same,MIC of meropenem with beta-lactamase inhibitor,[1],≤0.06 µg/mL
same,MIC of piperacillin with beta-lactamase inhibitor,[1],2 µg/mL
same,direct antibacterial activity,[8],exhibit direct antibacterial activity
same,MIC of aztreonam with beta-lactamase inhibitor,[2],1 µg/mL
same,Activity of Beta-Lactam 5 with beta-lactamase inhibitor,[2],0.125 µg/mL
same,MIC of ceftazidime with beta-lactamase inhibitor,[2],0.5 µg/mL
same,MIC of meropenem with beta-lactamase inhibitor,[2],≤0.06 µg/mL
same,MIC of aztreonam with beta-lactamase inhibitor,[3],0.125 µg/mL
same,Activity of Beta-Lactam 5 with beta-lactamase inhibitor,[3],0.25 µg/mL
same,MIC of ceftazidime with beta-lactamase inhibitor,[3],0.25 µg/mL
same,MIC of meropenem with beta-lactamase inhibitor,[3],≤0.06 µg/mL
same,MIC of aztreonam with beta-lactamase inhibitor,[4],0.125 µg/mL
same,Activity of Beta-Lactam 5 with beta-lactamase inhibitor,[4],0.125 µg/mL
same,MIC of ceftazidime with beta-lactamase inhibitor,[4],0.25 µg/mL
same,MIC of meropenem with beta-lactamase inhibitor,[4],≤0.06 µg/mL
